The values that follow come from US20230321043A1, “COMPOUNDS HAVING PSEUDOMONAS ANTI-BIOFILM PROPERTIES” (Københavns Universitet, priority 2020, published 2023).

Data set [1] concerns total cellular c-di-GMP content of P. aeruginosa ΔwspF,Δpsl,Δpel. Description: HPLC coupled tandem-MS quantification of c-di-GMP extracts. In kind it is cell-based, Pseudomonas aeruginosa. As to conditions: 100 μM, 8 hours of growth; pmol c-di-GMP per mg protein, FIG. 1. As to the method:
(§1) Specifically, a 20 h old culture of P. aeruginosa ΔwspF,Δpsl,Δpel (Rybtke et al 2012) was diluted 100 fold into 25 mL aliquots of ABtrace media supplemented with 0.5% Cas amino acids, 0.2% glucose, 60 μg/mL of gentamicin, 1 μM FeCl3, 0.05% DMSO and either 100 μM H6-335-P1, 100 μM H6-335 or no compound as reference control. Acting as a positive control for low total cellular c-di-GMP content, a 20 hour old culture of strain P. aeruginosa ΔwspF,Δpsl,Δpel carrying plasmid pYhj::Gm (encoding a constitutively expressed YhjH phosphodiesterase) was also diluted 100 fold into 25 mL of ABtrace medium supplemented with 0.5% Cas amino acids, 0.2% glucose, 60 μg/mL of gentamicin, 1 μM FeCl3 and 0.05% DMSO. The 4 cultures were placed on a rotary shaker and following 8 hours of growth at 37° C. and 200 RPM culture samples for c-di-GMP extraction and protein quantification was collected from each of the 4 different cultures. C-di-GMP extracts were prepared and subsequently quantified by HPLC coupled tandem-MS analysis as previously described (Groizeleau et al., 2016), while protein quantification was carried out using the Pierce 660 nm Protein Assay (Thermo Scientific Cat. No 22660) according to the manufacturer's protocol. […]

Data set [2] has as its system P. aeruginosa ΔwspFΔpelΔpsl. Briefly: growth (OD600) of treated cultures. In kind it is cell-based, Pseudomonas aeruginosa. As to conditions: 0 to 100 μM, 24 hours, FIG. 3B. As to the method:
as §1

Data set [3] relates to P. aeruginosa ΔbifAΔwspFΔpelΔpsl/pCdrA-gfp. Briefly: c-di-GMP monitor read-out in bifA knockout. Format: cell-based, Pseudomonas aeruginosa. As to conditions: 100 μM, 18 hours of cultivation, FIG. 6B right. As to the method:
This experiment was done using a 96 well microtiter format where 20 hour old cultures of the P. aeruginosa ΔwspFΔpelΔpsl/pCdrA-gfp c-di-GMP monitor strain and the P. aeruginosa ΔbifAΔwspFΔpelΔpsl/pCdrA-gfp c-di-GMP monitor strain were diluted 100 fold into 100 μL ABTrace media aliquots supplemented with 0.2% glucose, 0.5% casamino acids, 1 μM FeCl3, 60 μg/mL of gentamicin, 1% DMSO and either 100 μM or 0 μM of H6-335-P1. The resulting microtitter was incubated at 37° C. and 440 RPM in a Tecan reader, and corresponding values of GFP fluorescence (FU) and cell density (OD600) was measured every 20 minutes for 24 hours.

In data set [4] the test system is Enterococcus facieum. Briefly: biofilm formation / dispersal, host range. Format: cell-based. As to conditions: data not shown.
Data set [5] concerns Staphylococcus aureus. Briefly: biofilm formation / dispersal, host range. Format: cell-based. As to conditions: data not shown.
Data set [6] can be described thus: solubility in aqueous media. Conditions: aqueous media.

Each structure is given as a SMILES string.

By solubility is commonly meant how much of the substance goes into solution per volume. Read a low solubility as little dissolved substance. Take `N=C1NN=C(N)/C1=N/Nc1ccccc1F` [H6-335-P1, 4-[(2-fluorophenyl) hydrazinylidene]pyrazole-3,5-diamine]: the “reduction of total cellular c-di-GMP content” value in data set [1] is listed as 90%. The “effect on growth (OD600)” value in data set [2] is recorded as “does not inhibit growth”. Further, the “fluorescent read-out of ΔbifA c-di-GMP monitor strain” value in data set [3] is recorded as “completely unaffected”. For the same compound, the “biofilm formation of Enterococcus facieum” value in data set [4] was “failed to reduce biofilm formation”. Moreover, the “biofilm formation of Staphylococcus aureus” value in data set [5] is recorded as “failed to reduce biofilm formation”. Besides, the solubility in data set [6] was less than 2 µM.
